The values below come from patent publication US20030109702A1, “Pyrazolyl benzyl ethers” (priority 1999, published 2003).

Broadly, the chromatographic logP is a lipophilicity value derived from retention on a column.

The first series has as its system green peach aphid (Myzus persicae). Description: Myzus test. It counts as in vivo. The note with it: broad bean seedlings dipped, concentration of active compound 1000 ppm. The protocol: [table] To produce a suitable preparation of active compound, 1 part by weight of active compound is mixed with the stated amount of solvent and the stated amount of emulsifier, and the concentrate is diluted with emulsifier-containing water to the desired concentrations. Broad bean seedlings (Vicia faba) infested by the green peach aphid (Myzus persicae) are dipped into a preparation of active compound of the desired concentration and placed into a dish made of plastic. After the desired period of time, the kill in % is determined. 100% means that all of the animals have been killed; 0% means that none of the animals have been killed.
Turning to `CON=C(C1=NOCCO1)c1ccccc1COc1ccn(-c2ccc(Cl)cc2)n1` [Example 1, [2-({[1-(4-chlorophenyl)-1H-pyrazol-3-yl]oxy}methyl)phenyl](5,6-dihydro-1,4,2-dioxazin-3-yl)methanone O-methyl oxime], the kill rate is reported as 90%.

The test system of a further series is Meloidogyne incognita. Description: Meloidogyne test. In kind it is in vivo. The following applies: lettuce in sand, concentration of active compound 20 ppm. The protocol:
[table] To produce a suitable preparation of active compound, 1 part by weight of active compound is mixed with the stated amounts of solvent and emulsifier, and the concentrate is diluted with water to the desired concentration. Containers are filled with sand, solution of active compound, Meloidogyne incognita egg/larvae suspension and lettuce seeds. The lettuce seeds germinate and the plants develop. On the roots, galls are formed. After the desired period of time, the nematicidal action is determined in % via the formation of galls. 100% means that no galls were found; 0% means that the number of galls on the treated plants corresponds to that on the untreated control.
Consider `CON=C(C1=NOCCO1)c1ccccc1COc1ccn(-c2ccc(Cl)cc2)n1` [Example 1, [2-({[1-(4-chlorophenyl)-1H-pyrazol-3-yl]oxy}methyl)phenyl](5,6-dihydro-1,4,2-dioxazin-3-yl)methanone O-methyl oxime], for which the “kill rate (nematicidal action via the formation of galls)” value is on record as 100%.

Take `CON=C(C1=NOCCO1)c1ccccc1COc1ccn(-c2ccc(C#N)cc2)n1` [Example 12]: the “kill rate (nematicidal action via the formation of galls)” value is listed as 100%.

Tested on in a further series: not listed separately
Description: physchem.
Conditions: not given
In turn, `CON=C(C1=NOCCO1)c1ccccc1COc1ccn(-c2ccccc2Br)n1` [Example 2] gave a chromatographic logP of 3.21.

In the case of `CON=C(C1=NOCCO1)c1ccccc1COc1ccn(-c2ccc(Br)cc2)n1` [Example 3], the chromatographic logP came to 3.67.

In the case of `CON=C(C1=NOCCO1)c1ccccc1COc1ccn(-c2ccc(F)cc2)n1` [Example 4], the chromatographic logP amounted to 3.15.

`CON=C(C1=NOCCO1)c1ccccc1COc1ccn(-c2ccc(C)cc2)n1` [Example 5]: the chromatographic logP amounted to 3.4.

Consider `CON=C(C1=NOCCO1)c1ccccc1COc1ccn(-c2ccc(Cl)c(Cl)c2)n1` [Example 6], for which the chromatographic logP was 4.02.

`CON=C(C1=NOCCO1)c1ccccc1COc1ccn(-c2cc(Cl)cc(Cl)c2)n1` [Example 7] yielded a chromatographic logP of 4.24.

Take `CON=C(C1=NOCCO1)c1ccccc1COc1ccn(-c2cccc(Cl)c2)n1` [Example 8]: the chromatographic logP is 3.59.

`CON=C(C1=NOCCO1)c1ccccc1COc1ccn(-c2ccccc2Cl)n1` [Example 9] had a chromatographic logP of 3.2.

For the compound `CON=C(C1=NOCCO1)c1ccccc1COc1ccn(-c2cccc(Br)c2)n1` [Example 10], the chromatographic logP was 3.68.

`CON=C(C1=NOCCO1)c1ccccc1COc1ccn(-c2ccccc2C)n1` [Example 11] gave a chromatographic logP of 3.15.

`CON=C(C1=NOCCO1)c1ccccc1COc1ccn(-c2ccc(C#N)cc2)n1` [Example 12] had a chromatographic logP of 2.89.

On to `CON=C(C1=NOCCO1)c1ccccc1COc1ccn(-c2ccccc2)n1` [Example 13], for which the chromatographic logP was 3.06.

In the case of `CON=C(C1=NOCCO1)c1ccccc1COc1ccn(-c2ccc(Cl)cc2Cl)n1` [Example 14], the chromatographic logP stood at 3.78.

On to `CON=C(C1=NOCCO1)c1ccccc1COc1ccn(-c2ccc(C(C)(C)C)cc2)n1` [Example 15], for which the chromatographic logP came out at 4.33.

Compound `CON=C(C1=NOCCO1)c1ccccc1COc1ccn(-c2ccc(C(C)C)cc2)n1` [Example 16] came in with a chromatographic logP of 4.08.

`CON=C(C1=NOCCO1)c1ccccc1COc1ccn(-c2c(Cl)cccc2Cl)n1` [Example 17] registered a chromatographic logP of 4.08.

The compound `CON=C(C1=NOCCO1)c1ccccc1COc1ccn(-c2cccc(Cl)c2Cl)n1` [Example 18] displayed a chromatographic logP of 3.59.

In turn, `CON=C(C1=NOCCO1)c1ccccc1COc1ccn(-c2ccc(F)cc2F)n1` [Example 19] displayed a chromatographic logP of 3.28.

`CON=C(C1=NOCCO1)c1ccccc1COc1ccn(-c2ccccc2F)n1` [Example 20] showed a chromatographic logP of 3.19.

For `CON=C(C1=NOCCO1)c1ccccc1COc1ccn(-c2cccc(F)c2)n1` [Example 21], the chromatographic logP was determined as 3.24. This chromatographic logP and that of the compound before are within 0.2 log units of each other.

The compound `CON=C(C1=NOCCO1)c1ccccc1COc1ccn(-c2cc(C)ccc2C)n1` [Example 22] came in with a chromatographic logP of 3.52.

`CON=C(C1=NOCCO1)c1ccccc1COc1ccn(-c2c(Cl)cc(Cl)cc2Cl)n1` [Example 24]: the chromatographic logP was found to be 3.74.

Turning to `CON=C(C1=NOCCO1)c1ccccc1COc1ccn(-c2ccc(C)cc2C)n1` [Example 25], the chromatographic logP worked out at 3.5.

In turn, `CCc1ccccc1-n1ccc(OCc2ccccc2C(=NOC)C2=NOCCO2)n1` [Example 26] yielded a chromatographic logP of 3.47.

For `CON=C(C1=NOCCO1)c1ccccc1COc1ccn(-c2cc(Cl)ccc2Cl)n1` [Example 27], the chromatographic logP was 3.74.

Regarding `CON=C(C1=NOCCO1)c1ccccc1COc1ccn(-c2cccc(C)c2C)n1` [Example 28], the chromatographic logP is 3.68.

On to `CON=C(C1=NOCCO1)c1ccccc1COc1ccn(-c2ccc(C)c(C)c2)n1` [Example 29], for which the chromatographic logP came to 3.68.

Compound `CON=C(C1=NOCCO1)c1ccccc1COc1ccn(-c2cc(C)cc(C)c2)n1` [Example 30] returned a chromatographic logP of 3.79.

Consider `CON=C(C1=NOCCO1)c1ccccc1COc1ccn(-c2cccc3ccccc23)n1` [Example 31], for which the chromatographic logP is 3.51.

Compound `CON=C(C1=NOCCO1)c1ccccc1COc1ccn(Cc2cccc(C)c2)n1` [Example 32] displayed a chromatographic logP of 3.11.

In turn, `CON=C(C1=NOCCO1)c1ccccc1COc1ccn(Cc2ccc(C(C)(C)C)cc2)n1` [Example 33] displayed a chromatographic logP of 3.97.

Regarding `CON=C(C1=NOCCO1)c1ccccc1COc1ccn(Cc2ccccc2)n1` [Example 35], the chromatographic logP was found to be 2.79.

For `CON=C(C1=NOCCO1)c1ccccc1COc1ccn(Cc2ccc(Cl)cc2)n1` [Example 36], the chromatographic logP was determined as 3.19.

In turn, `CON=C(C1=NOCCO1)c1ccccc1COc1ccn(-c2ccc(OC)cc2)n1` [Example 39] showed a chromatographic logP of 3.

For the compound `CCc1ccc(-n2ccc(OCc3ccccc3C(=NOC)C3=NOCCO3)n2)cc1` [Example 42], the chromatographic logP came to 3.76.

For the compound `CCOc1ccccc1-n1ccc(OCc2ccccc2C(=NOC)C2=NOCCO2)n1` [Example 43], the chromatographic logP is 3.43.

Take `C=CCn1ccc(OCc2ccccc2C(=NOC)C2=NOCCO2)n1` [Example 44]: the chromatographic logP was 2.61.

Compound `CON=C(C1=NOCCO1)c1ccccc1COc1ccn(-c2ccc(I)cc2)n1` [Example 46] gave a chromatographic logP of 3.84.

In turn, `CON=C(C1=NOCCO1)c1ccccc1COc1ccn(-c2ccccc2OC)n1` [Example 48] returned a chromatographic logP of 2.87.

With `CON=C(C1=NOCCO1)c1ccccc1COc1ccn(CC2CCCCC2)n1` [Example 334], the chromatographic logP stood at 3.52.
